Test results published in patent US5574062A, “Coumarin derivative and use thereof” (Morinaga Milk Industry Co., Ltd., priority 1993, dated 1996).
Where two headings read alike, the source gives them in different places.

Columns and labels:
[1] = biological target: T1, 12-lipoxygenase (Rattus norvegicus, UniProt F1LQ70); experiment: 12-lipoxygenase inhibition assay (rat platelet supernatant, arachidonic acid, HPLC of 12-HETE); format: biochemical, Sprague Dawley male rat (platelets)
T1 construct: The platelets were then sonicated at 4° C. and centrifuged at 100,000×g for 30 minutes to obtain a supernatant as a 12-lipoxygenase enzyme solution; from tissue; host or cells: Sprague Dawley rat platelets (from aortic blood), sonicated, 100,000 x g supernatant
T1 sequence (F1LQ70 1-663): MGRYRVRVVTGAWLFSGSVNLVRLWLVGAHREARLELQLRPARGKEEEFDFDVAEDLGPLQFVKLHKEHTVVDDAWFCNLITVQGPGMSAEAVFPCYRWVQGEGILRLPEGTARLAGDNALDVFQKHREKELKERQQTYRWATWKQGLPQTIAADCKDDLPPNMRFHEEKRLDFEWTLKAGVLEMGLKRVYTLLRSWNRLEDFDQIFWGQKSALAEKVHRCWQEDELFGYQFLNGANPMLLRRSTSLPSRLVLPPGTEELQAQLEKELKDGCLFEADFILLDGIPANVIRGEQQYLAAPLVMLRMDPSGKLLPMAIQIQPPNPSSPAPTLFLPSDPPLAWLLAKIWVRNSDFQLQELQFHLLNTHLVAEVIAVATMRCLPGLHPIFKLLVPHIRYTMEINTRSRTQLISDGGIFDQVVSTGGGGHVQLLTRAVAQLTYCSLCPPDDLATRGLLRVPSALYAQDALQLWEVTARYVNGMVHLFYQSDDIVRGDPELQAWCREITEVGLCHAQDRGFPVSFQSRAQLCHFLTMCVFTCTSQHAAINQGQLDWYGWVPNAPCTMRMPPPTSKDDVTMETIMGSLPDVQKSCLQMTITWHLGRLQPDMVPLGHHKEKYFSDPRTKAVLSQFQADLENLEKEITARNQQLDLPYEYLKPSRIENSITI
Method: (§1) A Sprague Dawley male rat was anesthetized with ether and bled from abdominal aorta using a syringe filled with about one-tenth volume of 3.8% sodium citrate. Blood was centrifuged at 180×g for 15 minutes at room temperature to pellet sanguineous platelet blood plasma. The resultant supernatant was again centrifuged at 1800×g for 10 minutes at 4° C. The pelleted platelets were rinsed twice with a washing buffer (50 mM Tris-hydrochloric acid buffer containing 154 mM sodium chloride and 2 mM EDTA, pH: 7.4). The platelets were then suspended in one-twentieth volume of a resuspension buffer (50 mM Tris-hydrochloric acid buffer containing 154 mM sodium chloride and 5.5 mM glucose, pH: 7.4). The platelets were then sonicated at 4° C. and centrifuged at 100,000×g for 30 minutes to obtain a supernatant as a 12-lipoxygenase enzyme solution.
(§2) The enzyme solution described above was diluted with the resuspension buffer above mentioned to prepare an assay solution so as to include about 2 mU/ml of 12-lipoxygenase. To an aliquot (300 μl) of the assay solution was added 1 μl of a 3 mM indomethacin-ethanol solution, 1 μl of an aqueous 300 mM reduced-glutathione solution, and 3 μl of varied concentrated test compounds solution in ethanol. The resultant mixture was incubated at 37° C. for 5 minutes. Subsequently, 3 μl of a 2.5 mM arachidonic acid solution in ethanol was added to incubate with for another 5 minutes at 37° C., then the reaction was ceased by the addition of 600 μl of methanol. After being centrifuged at 10,000×g for 5 minutes, 12-hydroxyeicosatetraenoic acid recovered in the supernatant was separated with a reverse phase high-performance liquid chromatography equipped with a C-18 column and measured the absorption of diene at 234 nm to quantify the activity of 12-lipoxygenase.
(§3) As test compounds were used the compounds of the present invention prepared in the same methods as in Example 4, Example 5 and Example 8 and the compounds prepared in the same methods as in Comparative Examples 1-5, and as a control was used esculetin (purchased from Tokyo Kasei), a known compound represented by the following formula: [drawing 33] and the test was conducted at varied concentrations.
(§4) The enzyme solution was prepared according to the same manner as in Test Example 1.
(§5) The inhibition assay was performed according to the same method as described in Test Example 1 except that the same samples used in measurement of the 5-lipoxygensase activity were used to estimate IC50 values. […]
(§6) They were measured in the same method as in Test Example 1.

[2] = tested on: 12-lipoxygenase; experiment: as above; format: biochemical, Sprague Dawley male rat (platelets); conditions: comparative tests by the inventors
Method: as §1, §2, §3, §4, §5, §6

[3] = tested on: 12-lipoxygenase of mastocytoma cells; conditions: literature; cited from earlier work
[4] = biological target: T2, 5-lipoxygenase (Rattus norvegicus, UniProt P12527); experiment: 5-lipoxygenase inhibition assay (RBL-1 supernatant, arachidonic acid, HPLC of 5-HETE); format: biochemical, rat (basophilic leukemia cells RBL-1, ATCC CRL1378)
T2 construct: host or cells: RBL-1 (rat basophilic leukemia cells)
T2 sequence (P12527 1-673): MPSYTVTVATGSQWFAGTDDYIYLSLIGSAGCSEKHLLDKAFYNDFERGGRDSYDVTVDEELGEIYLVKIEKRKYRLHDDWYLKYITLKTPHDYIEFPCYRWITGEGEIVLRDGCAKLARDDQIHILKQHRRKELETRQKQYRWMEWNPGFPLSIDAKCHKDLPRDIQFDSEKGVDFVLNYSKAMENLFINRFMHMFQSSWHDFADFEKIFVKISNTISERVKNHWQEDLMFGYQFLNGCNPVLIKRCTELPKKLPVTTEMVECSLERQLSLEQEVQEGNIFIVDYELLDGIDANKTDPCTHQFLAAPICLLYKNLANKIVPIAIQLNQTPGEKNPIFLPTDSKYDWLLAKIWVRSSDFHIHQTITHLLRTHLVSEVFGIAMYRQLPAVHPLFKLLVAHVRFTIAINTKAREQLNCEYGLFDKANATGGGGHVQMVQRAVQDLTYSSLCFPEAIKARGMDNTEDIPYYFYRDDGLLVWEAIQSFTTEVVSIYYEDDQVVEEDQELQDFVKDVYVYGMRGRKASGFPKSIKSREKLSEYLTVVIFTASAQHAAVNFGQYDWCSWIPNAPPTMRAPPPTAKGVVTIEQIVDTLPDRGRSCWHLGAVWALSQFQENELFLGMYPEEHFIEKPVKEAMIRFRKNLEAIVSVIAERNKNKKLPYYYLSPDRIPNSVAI
Method: Rat basophilic leukemia cells (RBL-1, ATCC CRL1378) were cultured in Dulbecco modified Eagle's medium containing 10% new-born bovine serum.
Cultured cells were collected and washed twice with a 50 mM Tris-buffered saline (containing 154 mM sodium chloride, pH: 7.4, hereinafter described as TBS). The cell suspension (4×10^7 cells/ml) was then sonicated and centrifuged at 10,000×g for 10 minutes.
The resultant supernatant was used to prepare an assay solution.
To an aliquot (15 μl) of the enzyme solution (40 mU/ml equivalent) was added 185 μl of TBS, 50 μl of a 2 mM adenosine triphosphate in TBS, 50 μl of a 12 mM calcium chloride in TBS, 1 μl of a 3 mM indomethacin in ethanol solution, 1 μl of an aqueous 300 mM reduced glutathione solution, and 3 μl of varied concentrated test compounds solution in ethanol. The resultant mixture was incubated at 37° C. for 5 minutes. Subsequently, 3 μl of a 2.5 mM arachidonic acid solution in ethanol was added to incubate the mixture for 2 minutes at 37° C. The reaction was ceased by the addition of 600 μl of methanol. After being centrifuged at 10,000×g for 5 minutes, 5-hydroxyeicosatetraenoic acid recovered in the supernatant was separated with a reverse phase high-performance liquid chromatography equipped with a C-18 column and measured the absorption of diene at 234 nm to quantify the activity of the enzyme.
Using the compounds of the present invention prepared in the same manner as in Examples 1-30, and Examples 33-36 as test samples and known baicalein (purchased from Wako Junyaku Kogyo) represented by the following formula 30 as a control: [drawing 34] the tests were performed for dose dependent inhibition to estimate IC50 values
It was prepared in the same method as in Test Example 2.
They were measured in the same method as in Test Example 2.

[5] = tested on: 5-lipoxygenase; conditions: 10 uM, cited from earlier work
[6] = tested on: 12-lipoxygenase; conditions: same concentration (10 uM), platelets; cited from earlier work
[7] = tested on: 12-lipoxygenase; conditions: known compound used as lead; cited from earlier work
[8] = Formation of deacylated compounds by esterases in rat platelet enzyme solution (HPLC); format: in vitro ADME, rat (platelets); conditions: rat, platelet enzyme solution, 37° C., enzyme solution, read-out: conversion ratio to Formula 34b; for metabolised at 0.5 h, 10 µM: reaction time 30 minute; for metabolised at 1 h, 10 µM: reaction time 60 minute
Method: (§7) The test was performed to examine whether or not deacylated compounds would be formed due to esterases present in the enzyme solution when the compounds in the third embodiment according to the present invention were treated with the same enzyme solution as in Test Example 3.
(§8) The enzyme solution was prepared according to the same procedure as described in Test Example 1.
(§9) One ml of the above mentioned enzyme solution was diluted with 11 ml of a resuspension buffer. To an aliquot (300 μl) of this enzyme solution was added 3 μl of a 1.0×10^-3 M test compound solution in dimethyl sulfoxide. The mixture was incubated at 37° C. for an indicated time, then the reaction was ceased by the addition of 1 ml of acetonitrile. Twenty μl of the above mixture was subjected to reverse phase high-performance liquid chromatography equipped with a C-18 column to quantify the amount of deacylated products. As a control, a test using 300 μl of the resuspension buffer solution mentioned above instead of the enzyme solution was also performed.
(§10) Conditions of reverse phase high-performance liquid chromatography:
(§11) Column: Superspher RP-18(e) (purchased from Merck), 4.0 mm in diameter, 125 mm in length
(§12) Flow velocity: 1.0 ml/minute
(§13) Eluent: Acetonitrile containing 50 mM NaClO4 and 50 mM orthophosphate-water (55:45)
(§14) Column temperature: 30° C.
(§15) Calibration: Absorbance of 280 nm
(§16) The results of the test upon the compounds of Example 40 (Formula 43b) and Example 57 (Formula 74b) of the compounds according to the present invention will be shown. Since both the compounds of Example 40 (Formula 43b) and Example 57 (Formula 74b) are thought to be converted into the compound of Referential Example 8 (Formula 34b) through deacylation, the retention time of the compound of Referential Example 8 was checked strictly under the employed conditions with reverse phase high-performanceliquid chromatography mentioned above (retention time: 2.49 minutes) and a calibration curve of the compound was made using authentic sample of Referential Example 8.

[9] = tested on: esterases present in the enzyme solution; experiment: as above; format: in vitro ADME, rat (platelets); conditions: resuspension buffer instead of the enzyme solution
Method: as §7, §8, §9, §10, §11, §12, §13, §14, §15, §16

[10] = 12-Lipoxygenase inhibiting activity IC50 value, Test Example 5, Table 22
[11] = Test Example 2, Table 2, read-out: IC50 value of 12-lipoxygenase
[12] = Test Example 2, Table 2, read-out: IC50 value of 5-lipoxygenase

O=c1ccc2cc(O)c(O)cc2o1 [Esculetin, 6,7-dihydroxycoumarin, reference compound]
12-lipoxygenase inhibitory activity (in words) [1]: considerably weaker inhibitory effect on 12-lipoxygenase than the compounds of the present invention
IC50 [1, 10]: 4400 nM
IC50 ([1]; 12-lipoxygenase IC50 value, Test Example 1, Table 1 and text): 4400 nM
selectivity between 12-lipoxygenase and 5-lipoxygenase (in words) [2]: no selectivity was found
IC50 [3]: 2500 nM
IC50 [4]: 4300 nM

Oc1ccc(C2COc3cc(O)c(O)cc3C2)cc1 (stereo not shown) [compound of 12), 4',6,7-trihydroxyisoflavan]
inhibition of formation of 5-lipoxygenase metabolic products ([5]; human peripheral leukocytes): completely
selectivity between 5-lipoxygenase and 12-lipoxygenase (in words) ([5]; literature, leukocytes vs. platelets): selective toward 5-lipoxygenase
inhibition of formation of 12-lipoxygenase metabolic products [6]: 25%

O=c1cc(-c2ccccc2)oc2cc(O)c(O)c(O)c12 [Baicalein, 5,6,7-trihydroxyflavone, reference compound]
IC50 [1, 10]: 42 nM
IC50 ([1]; 12-lipoxygenase inhibiting activities of deacylated compounds (IC50 values), Test Example 3, Table 11, value belongs to the deacylated compound): 42 nM
IC50 ([1]; IC50 value of 12-lipoxygenase, Test Example 2, Table 2): 42 nM
IC50 ([1]; read-out: 12-Lipoxygenase inhibiting activity IC50 value, Test Example 5, Table 22): 42 nM
12-lipoxygenase inhibitory activity (in words) [7]: relatively strong 12-lipoxygenase inhibitory activity
selectivity (in words) [7]: relatively high selectivity
IC50 [4]: 2400 nM
IC50 ([4]; read-out: IC50 value of 5-lipoxygenase, Test Example 2, Table 2): 2400 nM

O=c1cc(-c2ccccc2)c2ccc(O)c(O)c2o1 [Comp. Example 3, reference compound]
IC50 ([1]; Test Example 1, Table 1 and text, read-out: 12-lipoxygenase IC50 value): 260 nM
selectivity between 12-lipoxygenase and 5-lipoxygenase (in words) [2]: no selectivity was found
IC50 ([4]; text of Test Example 1, not shown in Table 1, read-out: 5-lipoxygenase inhibitory activity IC50 value): 640 nM

CCC(=O)Oc1cc2cc(-c3cccc(Cl)c3)c(=O)oc2cc1OC(=O)CC [Example 57]
metabolised at 0.5 h, 10 µM [8]: 42.4%
metabolised at 1 h, 10 µM [8]: 60.4%
formation of deacylated compound in buffer control [9]: no deacylated compound (Formula 34b) was formed

O=c1oc2cc(O)c(O)cc2cc1-c1ccc(Br)cc1 [Example 1]
IC50 [1, 11]: 4.4 nM
IC50 [4, 12]: 190 nM

O=c1oc2cc(O)c(O)cc2cc1-c1ccc(C(F)(F)F)cc1 [Example 14, 3-(4-trifluoromethylphenyl)-6,7-dihydroxycoumarin]
IC50 [1, 11]: 13 nM
IC50 [4, 12]: 270 nM

O=c1oc2cc(O)c(O)cc2cc1-c1ccsc1 [Example 16]
IC50 [1, 11]: 22 nM
IC50 [4, 12]: 420 nM

CC(=O)Oc1cc2cc(-c3cccc(Cl)c3)c(=O)oc2cc1OC(C)=O [Example 40]
metabolised at 0.5 h, 10 µM [8]: 70.7%
metabolised at 1 h, 10 µM [8]: 72.8%
formation of deacylated compound in buffer control [9]: no deacylated compound (Formula 34b) was formed

Cc1ccc(-c2cc3cc(O)c(O)cc3oc2=O)cc1 [Example 11]
IC50 [1, 11]: 11 nM
IC50 [4, 12]: 180 nM
